Columns and labels:
[1] = test system: barnyardgrass; test: Test B pre-/postemergence herbicide test; assay type: in vivo, Echinochloa crus-galli; details: for Plant response rating (0 to 100 scale), Barnyardgrass: 0 is no effect; for Barnyardgrass plant response rating: postemergence
Outline: (§1)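 Seeds were planted and treated preemergence with compounds formulated in a non-phytotoxic solvent mixture containing surfactant, while plants at the 1- to 4-leaf stage (2 to 18 cm) received postemergence sprays. Flooded paddy plants were grown to the 2-leaf stage. After 13 to 15 days in a greenhouse, injury was visually rated 0–100 against untreated controls.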

[2] = test system: Surinam grass; test: Test B pre-/postemergence herbicide test; assay type: in vivo, Urochloa decumbens; details: for Plant response rating (0 to 100 scale), Surinam Grass: 0 is no effect; for Surinam Grass plant response rating: postemergence
Outline: (§2)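 Evaluation is visual, comparing treated with control plants on a scale where 0 means no effect and 100 means full control. Treatments were preemergence, or postemergence on seedlings 2–18 cm tall, and held 13–15 days in the greenhouse.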

[3] = test system: cocklebur; test: Test B pre-/postemergence herbicide test; assay type: in vivo, Xanthium strumarium; details: for Plant response rating (0 to 100 scale), Cocklebur: 0 is no effect; for Cocklebur plant response rating: postemergence
Outline: as §1

[4] = test system: corn; test: Test B pre-/postemergence herbicide test; assay type: in vivo, Zea mays; details: for Plant response rating (0 to 100 scale), Corn: 0 is no effect; for Corn plant response rating: postemergence
Outline: as §2

[5] = test system: large crabgrass; test: Test B pre-/postemergence herbicide test; assay type: in vivo, Digitaria sanguinalis; details: for Plant response rating (0 to 100 scale), Crabgrass, Large: 0 is no effect; for Crabgrass, Large plant response rating: postemergence
Outline: as §2

[6] = test system: giant foxtail; test: Test B pre-/postemergence herbicide test; assay type: in vivo, Setaria faberi; details: for Plant response rating (0 to 100 scale), Foxtail, Giant: 0 is no effect; for Foxtail, Giant plant response rating: postemergence
Outline: as §2

[7] = test system: lambsquarters; test: Test B pre-/postemergence herbicide test; assay type: in vivo, Chenopodium album; details: for Lambsquarters plant response rating: postemergence; for Plant response rating (0 to 100 scale), Lambsquarters: 0 is no effect
Outline: as §2

[8] = test system: morningglory; test: Test B pre-/postemergence herbicide test; assay type: in vivo, Ipomoea coccinea; details: for Plant response rating (0 to 100 scale), Morningglory: 0 is no effect; for Morningglory plant response rating: postemergence
Outline: as §1

[9] = test system: pigweed; test: Test B pre-/postemergence herbicide test; assay type: in vivo, Amaranthus retroflexus; details: for Plant response rating (0 to 100 scale), Pigweed: 0 is no effect; for Pigweed plant response rating: postemergence
Outline: as §2

[10] = test system: velvetleaf; test: Test B pre-/postemergence herbicide test; assay type: in vivo, Abutilon theophrasti; details: for Plant response rating (0 to 100 scale), Velvetleaf: 0 is no effect, preemergence; for Velvetleaf plant response rating: postemergence
Outline: as §2

[11] = test system: blackgrass; test: Test B postemergence herbicide test; assay type: in vivo, Alopecurus myosuroides; details: postemergence
Outline: (§3)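 Postemergence plants were sprayed with formulated test chemicals at 2 to 18 cm height (1- to 4-leaf stage); paddy species were grown to the 2-leaf stage. After 13 to 15 days in a greenhouse, injury was rated visually against untreated controls on a 0–100 scale (0 = no effect, 100 = complete control).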

[12] = test system: wheat; test: Test B postemergence herbicide test; assay type: in vivo, Triticum aestivum; design: key to Wheat plant response rating: 0 = no effect, 100 = complete control
Outline: (§4)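 Each value is a visual 0–100 response rating taken against controls 13 to 15 days after treatment in the greenhouse. Plants received formulated chemical postemergence at the 1- to 4-leaf stage or, in flooded paddy, at the 2-leaf stage.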

[13] = test system: wild oat; test: Test B postemergence herbicide test; assay type: in vivo, Avena fatua; details: postemergence
Outline: as §4

[14] = test system: rice; test: Test B flooded paddy test; assay type: in vivo, Oryza sativa; details: 1000 g ai/ha, scale 0 to 100 (0 no effect, 100 complete control)
Outline: as §4

[15] = test system: small flower umbrella sedge; test: Test B flooded paddy test; assay type: in vivo, Cyperus difformis; details: 1000 g ai/ha, scale 0 to 100 (0 no effect, 100 complete control)
Outline: as §3

[16] = test system: ducksalad; test: Test B flooded paddy test; assay type: in vivo, Heteranthera limosa; details: 1000 g ai/ha, scale 0 to 100 (0 no effect, 100 complete control)
Outline: as §3

[17] = test system: barnyardgrass; test: Test B flooded paddy test; assay type: in vivo, Echinochloa crus-galli; details: 1000 g ai/ha, scale 0 to 100 (0 no effect, 100 complete control)
Outline: as §3

[18] = 125 g ai/ha, 100 is complete control, preemergence
[19] = 125 g ai/ha, visual rating, scale 0 (no effect) to 100 (complete control)
[20] = 500 g ai/ha, scale 0 to 100, 0 is no effect, 100 is complete control
[21] = 125 g ai/ha, 100 is complete control
[22] = 125 g ai/ha, visual rating, scale 0 (no effect) to 100 (complete control), postemergence
[23] = 500 g ai/ha, visual rating, 0 = no effect, 100 = complete control, preemergence

CCc1nn(C(C)(C)C)nc1C(=O)Nc1cccc(C(=O)N2CC=CC2)c1 [Compound 366]
70: Plant response rating (0 to 100 scale), Barnyardgrass [1, 18] | Plant response rating (0 to 100 scale), Pigweed [9, 18] | Rice plant response rating [14]
0: Plant response rating (0 to 100 scale), Cocklebur [3, 18] | Plant response rating (0 to 100 scale), Velvetleaf [10, 21]
40: Plant response rating (0 to 100 scale), Corn [4, 18] | Plant response rating (0 to 100 scale), Crabgrass, Large [5, 18] | Foxtail, Giant plant response rating [6, 20] | Blackgrass plant response rating [11, 19] | Oat, Wild plant response rating [13, 19]
10: Barnyardgrass plant response rating [1, 19] | Barnyardgrass plant response rating [1, 20] | Surinam Grass plant response rating [2, 19] | Corn plant response rating [4, 19] | Crabgrass, Large plant response rating [5, 19] | Velvetleaf plant response rating [10, 19]
50: Cocklebur plant response rating [3, 20] | Plant response rating (0 to 100 scale), Foxtail, Giant [6, 18] | Pigweed plant response rating [9, 19] | Blackgrass plant response rating [11, 20]
80: Lambsquarters plant response rating [7, 19] | Barnyardgrass plant response rating [17]
20: Corn plant response rating [4, 20] | Crabgrass, Large plant response rating [5, 20] | Foxtail, Giant plant response rating [6, 19] | Wheat plant response rating [12, 22]
100: Ducksalad plant response rating [16]
30: Plant response rating (0 to 100 scale), Surinam Grass [2, 18] | Cocklebur plant response rating [3, 19] | Plant response rating (0 to 100 scale), Morningglory [8, 18]
90: Wheat plant response rating ([12]; 500 g ai/ha, scale 0 to 100, 0 no effect, 100 complete control, preemergence) | Sedge, Umbrella plant response rating [15]

CCNC(=O)c1ccc(F)c(NC(=O)c2cn(C(C)(C)C)nc2C)c1 [Compound 345]
0: Barnyardgrass plant response rating [1, 19] | Barnyardgrass plant response rating [1, 20] | Surinam Grass plant response rating [2, 19] | Surinam Grass plant response rating [2, 20] | Plant response rating (0 to 100 scale), Cocklebur [3, 18] | Cocklebur plant response rating [3, 19] | Cocklebur plant response rating [3, 20] | Plant response rating (0 to 100 scale), Corn [4, 18] | Corn plant response rating [4, 19] | Corn plant response rating [4, 20] | Crabgrass, Large plant response rating [5, 19] | Crabgrass, Large plant response rating [5, 20] | Foxtail, Giant plant response rating [6, 19] | Foxtail, Giant plant response rating [6, 20] | Blackgrass plant response rating [11, 19] | Blackgrass plant response rating [11, 20] | Wheat plant response rating [12, 22] | Wheat plant response rating ([12]; postemergence, 500 g ai/ha, scale 0 to 100, 0 is no effect, 100 is complete control) | Oat, Wild plant response rating [13, 19]
50: Plant response rating, Morningglory [8, 23]
40: Rice plant response rating [14]
10: Plant response rating, Cocklebur [3, 23] | Plant response rating, Corn [4, 23] | Plant response rating (0 to 100 scale), Foxtail, Giant [6, 18] | Morningglory plant response rating [8, 19] | Morningglory plant response rating [8, 20] | Velvetleaf plant response rating [10, 19] | Velvetleaf plant response rating [10, 20] | Oat, Wild plant response rating [13, 20]
20: Plant response rating (0 to 100 scale), Barnyardgrass [1, 18] | Plant response rating (0 to 100 scale), Surinam Grass [2, 18] | Lambsquarters plant response rating [7, 19] | Lambsquarters plant response rating [7, 20] | Plant response rating (0 to 100 scale), Morningglory [8, 18] | Pigweed plant response rating [9, 19] | Pigweed plant response rating [9, 20]
70: Plant response rating, Surinam Grass [2, 23] | Plant response rating (0 to 100 scale), Lambsquarters [7, 18] | Ducksalad plant response rating [16]
100: Plant response rating, Lambsquarters [7, 23] | Plant response rating, Pigweed [9, 23]
30: Plant response rating, Barnyardgrass [1, 23] | Plant response rating (0 to 100 scale), Crabgrass, Large [5, 18] | Plant response rating, Foxtail, Giant [6, 23] | Plant response rating (0 to 100 scale), Velvetleaf [10, 21] | Barnyardgrass plant response rating [17]
90: Plant response rating, Crabgrass, Large [5, 23]
60: Plant response rating (0 to 100 scale), Pigweed [9, 18]
80: Sedge, Umbrella plant response rating [15]

CCOC(=O)c1ccc(F)c(NC(=S)c2cc(C(C)(C)C)nn2CC)c1 [Compound 346]
80: Sedge, Umbrella plant response rating [15]
30: Cocklebur plant response rating [3, 19] | Lambsquarters plant response rating [7, 19] | Blackgrass plant response rating ([11]; 31 g ai/ha, scale 0 to 100) | Oat, Wild plant response rating ([13]; 31 g ai/ha, scale 0 to 100)
60: Plant response rating (0 to 100 scale), Crabgrass, Large [5, 18] | Pigweed plant response rating ([9]; 31 g ai/ha, scale 0 to 100) | Ducksalad plant response rating [16]
50: Plant response rating (0 to 100 scale), Foxtail, Giant [6, 18]
10: Plant response rating (0 to 100 scale), Surinam Grass [2, 18] | Surinam Grass plant response rating [2, 19] | Cocklebur plant response rating ([3]; 31 g ai/ha, scale 0 to 100) | Morningglory plant response rating [8, 19] | Velvetleaf plant response rating [10, 19] | Wheat plant response rating ([12]; postemergence, 31 g ai/ha, scale 0 to 100)
40: Blackgrass plant response rating [11, 19] | Oat, Wild plant response rating [13, 19] | Rice plant response rating [14] | Barnyardgrass plant response rating [17]
0: Plant response rating (0 to 100 scale), Barnyardgrass [1, 18] | Barnyardgrass plant response rating ([1]; 31 g ai/ha, scale 0 to 100) | Surinam Grass plant response rating ([2]; 31 g ai/ha, scale 0 to 100) | Plant response rating (0 to 100 scale), Cocklebur [3, 18] | Plant response rating (0 to 100 scale), Corn [4, 18] | Corn plant response rating [4, 19] | Corn plant response rating ([4]; 31 g ai/ha, scale 0 to 100) | Crabgrass, Large plant response rating [5, 19] | Crabgrass, Large plant response rating ([5]; 31 g ai/ha, scale 0 to 100) | Foxtail, Giant plant response rating ([6]; 31 g ai/ha, scale 0 to 100) | Plant response rating (0 to 100 scale), Lambsquarters [7, 18] | Lambsquarters plant response rating ([7]; 31 g ai/ha, scale 0 to 100) | Plant response rating (0 to 100 scale), Morningglory [8, 18] | Morningglory plant response rating ([8]; 31 g ai/ha, scale 0 to 100) | Plant response rating (0 to 100 scale), Pigweed [9, 18] | Plant response rating (0 to 100 scale), Velvetleaf [10, 21] | Velvetleaf plant response rating ([10]; 31 g ai/ha, scale 0 to 100)
70: Pigweed plant response rating [9, 19]
20: Barnyardgrass plant response rating [1, 19] | Foxtail, Giant plant response rating [6, 19] | Wheat plant response rating [12, 22]

From US20060069132A1, “Azolecarboxamide herbicides” (priority 2004, published 2006)
